Experimental data reported in ChEMBL document CHEMBL1833909, “Synthesis and structure-activity relationships of 4,5-fused pyridazinones as histamine H₃ receptor antagonists” (Bioorg Med Chem Lett, 2011).

target: Cytochrome P450 2C9 (Homo sapiens, UniProt P11712); test: Inhibition of CYP2C9; assay type: ADME; conditions: not given
Sequence (P11712 whole entry): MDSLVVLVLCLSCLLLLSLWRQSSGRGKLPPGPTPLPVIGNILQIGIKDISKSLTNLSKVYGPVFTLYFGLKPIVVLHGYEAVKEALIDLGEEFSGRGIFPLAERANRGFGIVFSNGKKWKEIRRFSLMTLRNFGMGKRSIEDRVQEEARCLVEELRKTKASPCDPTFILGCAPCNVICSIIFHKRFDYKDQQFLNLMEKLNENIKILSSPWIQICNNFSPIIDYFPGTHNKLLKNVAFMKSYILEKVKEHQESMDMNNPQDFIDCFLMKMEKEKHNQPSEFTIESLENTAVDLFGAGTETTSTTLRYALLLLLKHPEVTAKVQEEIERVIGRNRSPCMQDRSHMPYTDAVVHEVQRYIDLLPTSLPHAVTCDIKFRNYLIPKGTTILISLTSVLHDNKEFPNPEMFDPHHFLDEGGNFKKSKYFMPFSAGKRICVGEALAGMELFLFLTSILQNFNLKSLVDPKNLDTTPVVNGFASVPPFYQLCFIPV

Row | Compound | IC50 [µM]
1 | C[C@@H]1CCCN1CCCOc1ccc(-c2nn(C)c(=O)c3c2CCCC3)cc1 | > 30
2 | Cn1nc(-c2ccc(OCCCN3CCCCC3)cc2)c2ccccc2c1=O | > 30
3 | C[C@@H]1CCCN1CCCOc1ccc(C2=NN(C)C(=O)C3CCCC23)cc1 (some centres not stated) | > 30

The next lines start with the values.

Row | IC50 [µM] | Compound
4 | > 30 | C[C@@H]1CCCN1CCCOc1ccc(-c2nn(C)c(=O)c3c2CCC3)cc1
5 | > 30 | Cn1nc(-c2ccc(OCCCN3CCCCC3)cc2)c2c(c1=O)CCCC2

target: T1, Cytochrome P450 1A2 (Homo sapiens, UniProt P05177); test: Inhibition of CYP1A2; assay type: ADME; conditions: not given
T1 sequence (P05177 whole entry): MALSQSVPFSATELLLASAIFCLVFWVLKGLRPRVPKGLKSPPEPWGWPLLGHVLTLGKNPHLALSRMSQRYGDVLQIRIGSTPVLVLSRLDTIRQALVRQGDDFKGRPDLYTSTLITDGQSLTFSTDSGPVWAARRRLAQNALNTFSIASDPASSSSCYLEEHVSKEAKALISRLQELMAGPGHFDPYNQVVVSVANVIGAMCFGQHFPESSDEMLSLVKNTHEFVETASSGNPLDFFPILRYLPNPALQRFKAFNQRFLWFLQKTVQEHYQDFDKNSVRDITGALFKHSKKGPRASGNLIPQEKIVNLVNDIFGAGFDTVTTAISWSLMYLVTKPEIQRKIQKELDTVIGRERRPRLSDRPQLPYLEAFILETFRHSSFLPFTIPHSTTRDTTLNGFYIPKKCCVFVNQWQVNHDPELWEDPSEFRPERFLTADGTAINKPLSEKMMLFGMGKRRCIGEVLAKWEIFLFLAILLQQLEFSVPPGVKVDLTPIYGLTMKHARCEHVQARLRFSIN

Row | Compound | IC50 [µM]
6 | C[C@@H]1CCCN1CCCOc1ccc(-c2nn(C)c(=O)c3c2CCCC3)cc1 | > 30
7 | Cn1nc(-c2ccc(OCCCN3CCCCC3)cc2)c2ccccc2c1=O | > 30
8 | C[C@@H]1CCCN1CCCOc1ccc(C2=NN(C)C(=O)C3CCCC23)cc1 (some centres not stated) | > 30

Next, values leading:

Row | IC50 [µM] | Compound
9 | > 30 | C[C@@H]1CCCN1CCCOc1ccc(-c2nn(C)c(=O)c3c2CCC3)cc1
10 | > 30 | Cn1nc(-c2ccc(OCCCN3CCCCC3)cc2)c2c(c1=O)CCCC2

target: Histamine H3 receptor (Rattus norvegicus, UniProt Q9QYN8); test: Displacement of [3H]-NAMH from rat histamine H3 receptor expressed in CHO cells; assay type: cell-based; conditions: not given
Sequence (Q9QYN8 whole entry): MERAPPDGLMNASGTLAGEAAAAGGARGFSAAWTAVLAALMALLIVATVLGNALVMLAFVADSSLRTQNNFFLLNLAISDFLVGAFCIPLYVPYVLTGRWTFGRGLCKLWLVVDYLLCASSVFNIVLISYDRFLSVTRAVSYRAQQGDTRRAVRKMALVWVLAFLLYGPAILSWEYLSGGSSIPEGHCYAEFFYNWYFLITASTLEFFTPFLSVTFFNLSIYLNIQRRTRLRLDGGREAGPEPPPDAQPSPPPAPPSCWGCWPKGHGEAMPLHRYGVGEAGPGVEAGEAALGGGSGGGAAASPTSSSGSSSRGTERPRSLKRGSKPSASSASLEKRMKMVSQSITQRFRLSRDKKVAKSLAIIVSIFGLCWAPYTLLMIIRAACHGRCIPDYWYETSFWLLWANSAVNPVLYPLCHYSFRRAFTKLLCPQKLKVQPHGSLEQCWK

Row | Compound | Ki [µM]
11 | C[C@@H]1CCCN1CCCOc1ccc(-c2nn(C)c(=O)c3c2CCCC3)cc1 | 0.0012
12 | Cn1nc(-c2ccc(OCCCN3CCCCC3)cc2)c2ccccc2c1=O | 0.009
13 | C[C@@H]1CCCN1CCCOc1ccc(C2=NN(C)C(=O)C3CCCC23)cc1 (some centres not stated) | 0.0047

Further lines, results first:

Row | Ki [µM] | Compound
14 | 0.002 | C[C@@H]1CCCN1CCCOc1ccc(-c2nn(C)c(=O)c3c2CCC3)cc1
15 | 0.0045 | Cn1nc(-c2ccc(OCCCN3CCCCC3)cc2)c2c(c1=O)CCCC2

target: Cytochrome P450 2C19 (Homo sapiens, UniProt P33261); test: Inhibition of CYP2C19; assay type: ADME; conditions: not given
Sequence (P33261 whole entry): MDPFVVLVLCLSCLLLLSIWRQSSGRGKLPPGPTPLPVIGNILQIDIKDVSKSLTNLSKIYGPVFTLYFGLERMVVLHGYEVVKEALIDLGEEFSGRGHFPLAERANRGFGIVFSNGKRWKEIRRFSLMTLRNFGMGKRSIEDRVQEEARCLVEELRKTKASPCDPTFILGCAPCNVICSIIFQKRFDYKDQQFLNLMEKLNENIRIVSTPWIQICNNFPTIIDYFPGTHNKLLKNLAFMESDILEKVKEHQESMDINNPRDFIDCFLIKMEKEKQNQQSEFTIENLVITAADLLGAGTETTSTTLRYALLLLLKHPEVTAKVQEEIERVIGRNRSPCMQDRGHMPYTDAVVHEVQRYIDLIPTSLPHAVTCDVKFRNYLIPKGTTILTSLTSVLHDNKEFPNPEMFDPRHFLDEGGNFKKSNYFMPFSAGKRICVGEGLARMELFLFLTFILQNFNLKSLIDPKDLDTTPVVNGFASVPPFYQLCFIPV

Row | Compound | IC50 [µM]
16 | C[C@@H]1CCCN1CCCOc1ccc(-c2nn(C)c(=O)c3c2CCCC3)cc1 | > 30
17 | Cn1nc(-c2ccc(OCCCN3CCCCC3)cc2)c2ccccc2c1=O | > 30
18 | C[C@@H]1CCCN1CCCOc1ccc(C2=NN(C)C(=O)C3CCCC23)cc1 (some centres not stated) | > 30

Continued, values first:

Row | IC50 [µM] | Compound
19 | > 30 | C[C@@H]1CCCN1CCCOc1ccc(-c2nn(C)c(=O)c3c2CCC3)cc1
20 | > 30 | Cn1nc(-c2ccc(OCCCN3CCCCC3)cc2)c2c(c1=O)CCCC2

target: Cytochrome P450 2D6 (Homo sapiens, UniProt P10635); test: Inhibition of CYP2D6; assay type: ADME; conditions: not given
Sequence (P10635 whole entry): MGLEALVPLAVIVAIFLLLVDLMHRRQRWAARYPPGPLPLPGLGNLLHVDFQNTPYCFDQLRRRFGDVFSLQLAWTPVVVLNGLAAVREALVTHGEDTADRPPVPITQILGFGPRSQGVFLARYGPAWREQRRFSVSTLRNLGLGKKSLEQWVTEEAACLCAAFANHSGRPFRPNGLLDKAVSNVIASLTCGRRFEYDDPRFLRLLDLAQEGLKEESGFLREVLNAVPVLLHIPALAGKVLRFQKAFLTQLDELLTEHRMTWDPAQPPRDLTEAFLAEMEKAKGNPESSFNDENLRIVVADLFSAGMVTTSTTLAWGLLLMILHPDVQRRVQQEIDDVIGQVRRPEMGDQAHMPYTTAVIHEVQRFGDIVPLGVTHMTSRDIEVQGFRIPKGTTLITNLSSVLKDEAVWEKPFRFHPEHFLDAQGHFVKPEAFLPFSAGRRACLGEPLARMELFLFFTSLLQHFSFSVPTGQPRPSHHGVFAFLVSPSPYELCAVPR

Row | Compound | IC50 [µM]
21 | C[C@@H]1CCCN1CCCOc1ccc(-c2nn(C)c(=O)c3c2CCCC3)cc1 | > 30
22 | Cn1nc(-c2ccc(OCCCN3CCCCC3)cc2)c2ccccc2c1=O | > 30
23 | C[C@@H]1CCCN1CCCOc1ccc(C2=NN(C)C(=O)C3CCCC23)cc1 (some centres not stated) | > 30

Further lines, results first:

Row | IC50 [µM] | Compound
24 | > 30 | C[C@@H]1CCCN1CCCOc1ccc(-c2nn(C)c(=O)c3c2CCC3)cc1
25 | > 30 | Cn1nc(-c2ccc(OCCCN3CCCCC3)cc2)c2c(c1=O)CCCC2

target: Cytochrome P450 3A4 (Homo sapiens, UniProt P08684); test: Inhibition of CYP3A4; assay type: ADME; conditions: not given
Sequence (P08684 whole entry): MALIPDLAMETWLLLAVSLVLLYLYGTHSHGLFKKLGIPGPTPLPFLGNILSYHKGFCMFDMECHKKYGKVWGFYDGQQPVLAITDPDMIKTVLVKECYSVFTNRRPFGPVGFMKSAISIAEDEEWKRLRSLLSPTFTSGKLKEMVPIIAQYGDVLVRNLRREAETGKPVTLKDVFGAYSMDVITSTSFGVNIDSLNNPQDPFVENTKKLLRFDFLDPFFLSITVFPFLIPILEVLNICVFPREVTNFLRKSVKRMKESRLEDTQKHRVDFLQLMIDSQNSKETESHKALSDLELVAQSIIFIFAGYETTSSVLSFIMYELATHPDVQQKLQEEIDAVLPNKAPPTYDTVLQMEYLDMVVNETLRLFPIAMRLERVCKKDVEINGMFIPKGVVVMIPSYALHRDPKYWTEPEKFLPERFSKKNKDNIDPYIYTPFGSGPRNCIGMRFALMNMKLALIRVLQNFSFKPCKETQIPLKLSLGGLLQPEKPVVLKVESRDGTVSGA

Row | Compound | IC50 [µM]
26 | C[C@@H]1CCCN1CCCOc1ccc(-c2nn(C)c(=O)c3c2CCCC3)cc1 | > 30
27 | Cn1nc(-c2ccc(OCCCN3CCCCC3)cc2)c2ccccc2c1=O | > 30
28 | C[C@@H]1CCCN1CCCOc1ccc(C2=NN(C)C(=O)C3CCCC23)cc1 (some centres not stated) | > 30

The next lines start with the values.

Row | IC50 [µM] | Compound
29 | > 30 | C[C@@H]1CCCN1CCCOc1ccc(-c2nn(C)c(=O)c3c2CCC3)cc1
30 | > 30 | Cn1nc(-c2ccc(OCCCN3CCCCC3)cc2)c2c(c1=O)CCCC2

tested on: not listed separately; test: Half life in dog liver microsomes; assay type: ADME, Canis lupus familiaris, Microsome; conditions: not given

Row | half-life [min] | Compound
31 | > 40 | Cn1nc(-c2ccc(OCCCN3CCCCC3)cc2)c2ccccc2c1=O

tested on: not listed separately; test: Half life in rat liver microsomes; assay type: ADME, Microsome; conditions: not given

Row | half-life [min] | Compound
32 | > 40 | Cn1nc(-c2ccc(OCCCN3CCCCC3)cc2)c2ccccc2c1=O

tested on: not listed separately; test: Half life in human liver microsomes; assay type: ADME, Microsome; conditions: not given

Row | half-life [min] | Compound
33 | > 40 | Cn1nc(-c2ccc(OCCCN3CCCCC3)cc2)c2ccccc2c1=O

target: Histamine H1 receptor (Homo sapiens) (UniProt P35367); test: Inhibition of human histamine H1 receptor at 10 uM; conditions: not given
Sequence (P35367 whole entry): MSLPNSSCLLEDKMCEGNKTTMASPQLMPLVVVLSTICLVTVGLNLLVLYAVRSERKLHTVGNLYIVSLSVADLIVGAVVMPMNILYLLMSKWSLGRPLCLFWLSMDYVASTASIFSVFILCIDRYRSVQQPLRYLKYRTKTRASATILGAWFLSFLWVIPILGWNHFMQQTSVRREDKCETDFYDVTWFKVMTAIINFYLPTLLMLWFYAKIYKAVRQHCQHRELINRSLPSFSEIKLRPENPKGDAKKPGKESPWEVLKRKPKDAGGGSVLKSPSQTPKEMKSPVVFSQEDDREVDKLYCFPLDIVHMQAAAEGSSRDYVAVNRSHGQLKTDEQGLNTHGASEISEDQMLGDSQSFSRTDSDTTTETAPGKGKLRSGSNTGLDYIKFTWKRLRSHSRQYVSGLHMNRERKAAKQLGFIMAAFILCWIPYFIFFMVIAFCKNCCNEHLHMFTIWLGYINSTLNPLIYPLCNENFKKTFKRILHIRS

Row | inhibition [%] | Compound
34 | < 30 | C[C@@H]1CCCN1CCCOc1ccc(-c2nn(C)c(=O)c3c2CCC3)cc1

target: Histamine H2 receptor (Homo sapiens) (UniProt P25021); test: Inhibition of human histamine H2 receptor at 10 uM; conditions: not given
Sequence (P25021 whole entry): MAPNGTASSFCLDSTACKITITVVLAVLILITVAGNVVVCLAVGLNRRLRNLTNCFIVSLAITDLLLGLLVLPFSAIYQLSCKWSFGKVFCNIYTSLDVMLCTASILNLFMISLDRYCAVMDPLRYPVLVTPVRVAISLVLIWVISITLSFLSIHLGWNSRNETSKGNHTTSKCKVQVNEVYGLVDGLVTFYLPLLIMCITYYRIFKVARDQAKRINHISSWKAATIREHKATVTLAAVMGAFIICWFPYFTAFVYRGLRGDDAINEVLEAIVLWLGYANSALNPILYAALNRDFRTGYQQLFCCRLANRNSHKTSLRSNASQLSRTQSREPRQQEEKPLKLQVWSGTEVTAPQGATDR

Row | inhibition [%] | Compound
35 | < 30 | C[C@@H]1CCCN1CCCOc1ccc(-c2nn(C)c(=O)c3c2CCC3)cc1

target: Histamine H4 receptor (Homo sapiens) (UniProt Q9H3N8); test: Inhibition of human histamine H4 receptor at 10 uM; conditions: not given

Row | inhibition [%] | Compound
36 | < 30 | C[C@@H]1CCCN1CCCOc1ccc(-c2nn(C)c(=O)c3c2CCC3)cc1

target: Sodium-dependent noradrenaline transporter (Homo sapiens) (UniProt P23975); test: Inhibition of norepinephrine transporter at 10 uM; conditions: not given
Sequence (P23975 whole entry): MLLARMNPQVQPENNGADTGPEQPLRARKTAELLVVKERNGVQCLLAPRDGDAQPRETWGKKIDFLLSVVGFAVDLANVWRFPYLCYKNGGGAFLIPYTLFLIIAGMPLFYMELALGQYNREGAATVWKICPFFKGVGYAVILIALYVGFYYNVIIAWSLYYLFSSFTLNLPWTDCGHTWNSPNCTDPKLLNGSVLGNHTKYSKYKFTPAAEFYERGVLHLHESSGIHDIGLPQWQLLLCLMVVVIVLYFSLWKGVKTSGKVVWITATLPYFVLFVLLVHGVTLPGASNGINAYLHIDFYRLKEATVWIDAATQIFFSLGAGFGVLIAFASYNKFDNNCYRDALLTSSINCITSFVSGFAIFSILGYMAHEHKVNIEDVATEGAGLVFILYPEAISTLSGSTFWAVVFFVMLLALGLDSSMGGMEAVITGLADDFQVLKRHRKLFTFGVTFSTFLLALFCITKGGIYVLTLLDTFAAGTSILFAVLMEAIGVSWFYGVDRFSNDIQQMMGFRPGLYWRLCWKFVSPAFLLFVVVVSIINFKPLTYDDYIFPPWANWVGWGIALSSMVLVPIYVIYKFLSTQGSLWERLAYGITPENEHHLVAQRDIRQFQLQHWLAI

Row | inhibition [%] | Compound
37 | 60 | C[C@@H]1CCCN1CCCOc1ccc(-c2nn(C)c(=O)c3c2CCC3)cc1

tested on: not listed separately; test: Inhibition of dihydropyridine site of calcium channel at 10 uM; conditions: not given

Row | inhibition [%] | Compound
38 | 68 | C[C@@H]1CCCN1CCCOc1ccc(-c2nn(C)c(=O)c3c2CCC3)cc1

target: hERG (KCNH2) (Homo sapiens, UniProt Q12809); test: Inhibition of human ERG at 10 uM by patch clamp assay; conditions: not given

Row | Compound | inhibition at 10 µM [%]
39 | C[C@@H]1CCCN1CCCOc1ccc(-c2nn(C)c(=O)c3c2CCC3)cc1 | 23

target: T2, Histamine H3 receptor (Homo sapiens, UniProt Q9Y5N1); test: Antagonist activity at recombinant human histamine H3 receptor assessed as inhibition of RAMH-induced [35S]GTPgammaS binding; assay type: functional; conditions: not given
T2 sequence (Q9Y5N1 whole entry): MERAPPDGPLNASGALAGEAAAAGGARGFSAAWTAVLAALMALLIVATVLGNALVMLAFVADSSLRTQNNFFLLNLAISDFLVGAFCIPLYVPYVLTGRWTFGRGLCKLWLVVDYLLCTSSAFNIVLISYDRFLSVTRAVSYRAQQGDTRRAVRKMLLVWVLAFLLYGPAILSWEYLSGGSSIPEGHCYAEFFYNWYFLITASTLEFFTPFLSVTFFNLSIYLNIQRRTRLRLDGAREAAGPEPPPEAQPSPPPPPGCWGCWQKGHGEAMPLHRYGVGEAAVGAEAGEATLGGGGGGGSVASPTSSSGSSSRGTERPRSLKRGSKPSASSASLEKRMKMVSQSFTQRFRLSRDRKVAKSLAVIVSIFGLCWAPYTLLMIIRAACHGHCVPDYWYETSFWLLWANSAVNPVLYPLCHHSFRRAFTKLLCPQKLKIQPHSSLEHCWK

Row | Kb [µM] | Compound
40 | 0.0002 | C[C@@H]1CCCN1CCCOc1ccc(-c2nn(C)c(=O)c3c2CCC3)cc1

target: T2, Histamine H3 receptor; test: Inverse agonist activity at human histamine H3 receptor assessed as decrease of basal activity of [35S]GTPgammaS binding; assay type: functional; conditions: not given

Row | EC50 [µM] | Compound
41 | 0.0008 | C[C@@H]1CCCN1CCCOc1ccc(-c2nn(C)c(=O)c3c2CCC3)cc1

tested on: not listed separately; test: Half life in rat at 1 mg/kg, iv; assay type: ADME, organism-based; parameters: dose 1 mg/kg, route intravenous; conditions: in vivo

Row | half-life [min] | Compound
42 | 15.6 | C[C@@H]1CCCN1CCCOc1ccc(-c2nn(C)c(=O)c3c2CCC3)cc1
43 | 18 | Cn1nc(-c2ccc(OCCCN3CCCCC3)cc2)c2ccccc2c1=O

tested on: not listed separately; test: AUC in rat at 1 mg/kg, iv; assay type: ADME, organism-based; parameters: dose 1 mg/kg, route intravenous; conditions: plasma

Row | AUC [ng·h/mL] | Compound
44 | 182 | C[C@@H]1CCCN1CCCOc1ccc(-c2nn(C)c(=O)c3c2CCC3)cc1
45 | 402 | Cn1nc(-c2ccc(OCCCN3CCCCC3)cc2)c2ccccc2c1=O

tested on: not listed separately; test: Volume of distribution in rat at 1 mg/kg, iv; assay type: ADME, organism-based; parameters: dose 1 mg/kg, route intravenous; conditions: in vivo

Row | Vd [L/kg] | Compound
46 | 3.35 | C[C@@H]1CCCN1CCCOc1ccc(-c2nn(C)c(=O)c3c2CCC3)cc1
47 | 1.36 | Cn1nc(-c2ccc(OCCCN3CCCCC3)cc2)c2ccccc2c1=O

tested on: not listed separately; test: Clearance in rat at 1 mg/kg, iv; assay type: ADME, organism-based; parameters: dose 1 mg/kg, route intravenous; conditions: in vivo

Row | clearance [mL/min/kg] | Compound
48 | 163 | C[C@@H]1CCCN1CCCOc1ccc(-c2nn(C)c(=O)c3c2CCC3)cc1
49 | 52 | Cn1nc(-c2ccc(OCCCN3CCCCC3)cc2)c2ccccc2c1=O

tested on: not listed separately; test: AUC in rat at 5 mg/kg, po; assay type: ADME, organism-based; parameters: dose 5 mg/kg, route oral; conditions: plasma

Row | AUC [ng·h/mL] | Compound
50 | 5.82 | C[C@@H]1CCCN1CCCOc1ccc(-c2nn(C)c(=O)c3c2CCC3)cc1
51 | 14 | Cn1nc(-c2ccc(OCCCN3CCCCC3)cc2)c2ccccc2c1=O

tested on: not listed separately; test: Cmax in rat at 5 mg/kg, po; assay type: ADME, organism-based; parameters: dose 5 mg/kg, route oral; conditions: in vivo

Row | Cmax [ng/mL] | Compound
52 | 7 | C[C@@H]1CCCN1CCCOc1ccc(-c2nn(C)c(=O)c3c2CCC3)cc1
53 | 20 | Cn1nc(-c2ccc(OCCCN3CCCCC3)cc2)c2ccccc2c1=O

tested on: not listed separately; test: Oral bioavailability in rat at 5 mg/kg; assay type: ADME, organism-based; conditions: in vivo

Row | bioavailability [%] | Compound
54 | < 1 | C[C@@H]1CCCN1CCCOc1ccc(-c2nn(C)c(=O)c3c2CCC3)cc1
55 | < 1 | Cn1nc(-c2ccc(OCCCN3CCCCC3)cc2)c2ccccc2c1=O

tested on: not listed separately; test: Ratio of drug level in brain to plasma in ip dosed rat after 1 hr; assay type: ADME, organism-based; conditions: read-out: BPR

Row | Kp at 1 h | Compound
56 | 1.2 | C[C@@H]1CCCN1CCCOc1ccc(-c2nn(C)c(=O)c3c2CCC3)cc1
57 | 2.98 | Cn1nc(-c2ccc(OCCCN3CCCCC3)cc2)c2ccccc2c1=O

target: T2, Histamine H3 receptor; test: biochemical; conditions: not given

Row | Compound | Ki [µM]
58 | C[C@@H]1CCCN1CCCOc1ccc(-c2nn(C)c(=O)c3c2CCCC3)cc1 | 0.0008
59 | Cn1nc(-c2ccc(OCCCN3CCCCC3)cc2)c2ccccc2c1=O | 0.0008
60 | C[C@@H]1CCCN1CCCOc1ccc(C2=NN(C)C(=O)C3CCCC23)cc1 (some centres not stated) | 0.0016

Now from value to compound:

Row | Ki [µM] | Compound
61 | 0.0004 | C[C@@H]1CCCN1CCCOc1ccc(-c2nn(C)c(=O)c3c2CCC3)cc1
62 | 0.0015 | Cn1nc(-c2ccc(OCCCN3CCCCC3)cc2)c2c(c1=O)CCCC2
